Data reported in the NIST ThermoML archive (doi:10.1021/je9005757).

Assay: cn = amount concentration of the nth substance listed, in mol/dm3
Settings: 101 kPa, Liquid; for molar conductivity: Shedlovsky-type conductance cell; for binary diffusion coefficient: Open capillary

CN[C@@H](C)[C@H](O)c1ccccc1.Cl [ephedrine hydrochloride] + O
Settings	binary diffusion coefficient, 298.15 K [m2/s]	binary diffusion coefficient, 310.15 K [m2/s]	molar conductivity, 283.15 K [S·m2/mol]	molar conductivity, 293.15 K [S·m2/mol]	molar conductivity, 298.15 K [S·m2/mol]	molar conductivity, 303.15 K [S·m2/mol]	molar conductivity, 310.15 K [S·m2/mol]	molar conductivity, 323.15 K [S·m2/mol]
c1 = 0.00125	1.15e-09	1.57e-09	–	–	–	–	–	–
c1 = 0.00184	–	–	0.006571	0.008375	0.009463	0.01041	0.01195	0.01495
c1 = 0.002438	–	–	0.006463	0.008198	0.009282	0.01023	0.01173	0.01471
c1 = 0.0025	1.1e-09	1.56e-09	–	–	–	–	–	–
c1 = 0.00303	–	–	0.006355	0.008059	0.009127	0.01006	0.01154	0.01449
c1 = 0.003614	–	–	0.00628	0.007907	0.008991	0.009914	0.01139	0.01427
c1 = 0.004191	–	–	0.006181	0.007775	0.00886	0.009802	0.01125	0.01408
c1 = 0.004761	–	–	0.006103	0.007663	0.008753	0.009663	0.01108	0.01392
c1 = 0.00499	1.09e-09	1.5e-09	–	–	–	–	–	–
c1 = 0.005324	–	–	0.006044	0.007564	0.008653	0.009567	0.01096	0.01377
c1 = 0.005881	–	–	0.00599	0.007468	0.008556	0.009474	0.01085	0.01356
c1 = 0.006431	–	–	0.005925	0.007377	0.008465	0.009363	0.01074	0.01344
c1 = 0.006975	–	–	0.00586	0.007288	0.008374	0.009271	0.01064	0.01332
c1 = 0.00746	1.03e-09	1.45e-09	–	–	–	–	–	–
c1 = 0.007513	–	–	0.005794	0.007199	0.008283	0.009197	0.01052	0.01318
c1 = 0.008044	–	–	0.005736	0.007119	0.008199	0.00911	0.01042	0.01307
c1 = 0.008569	–	–	0.005685	0.007044	0.00812	0.009028	0.01033	0.01295
c1 = 0.009089	–	–	0.005635	0.006974	0.008044	0.008949	0.01023	0.01284
c1 = 0.009602	–	–	0.005584	0.006908	0.007975	0.008878	0.01015	0.01274
c1 = 0.01	1e-09	1.41e-09	–	–	–	–	–	–
c1 = 0.01011	–	–	0.005537	0.006846	0.007908	0.008807	0.01007	0.01264
c1 = 0.01061	–	–	0.005491	0.006795	0.00784	0.008734	0.009982	0.01254
c1 = 0.01111	–	–	0.005446	0.006723	0.007774	0.008665	0.009901	0.01244
c1 = 0.0116	–	–	0.005401	0.006663	0.007709	0.008596	0.009821	0.01234
c1 = 0.01209	–	–	0.005359	0.006604	0.007646	0.008528	0.009742	0.01226
c1 = 0.01256	–	–	0.00532	0.006549	0.007586	0.008464	0.009673	0.01215
c1 = 0.01304	–	–	0.005281	0.006498	0.00753	0.008437	0.009602	0.01206
c1 = 0.01351	–	–	0.005244	0.006448	0.007474	0.008343	0.009533	0.01197
c1 = 0.01397	–	–	0.00521	0.0064	0.007422	0.008286	0.009467	0.01189
c1 = 0.01443	–	–	0.005176	0.006354	0.00737	0.00823	0.009401	0.01181
c1 = 0.01489	–	–	0.00514	0.006307	0.007318	0.008174	0.009336	0.01172
c1 = 0.01534	–	–	0.005107	0.00626	0.007267	0.008118	0.009271	0.01164
c1 = 0.01579	–	–	0.005075	0.006217	0.007217	0.008064	0.009208	0.01156
c1 = 0.01623	–	–	0.005042	0.006174	0.00717	0.008012	0.009146	0.01149
c1 = 0.01666	–	–	0.005011	0.006133	0.007125	0.007962	0.009088	0.01141

CN[C@H](C)[C@@H](O)c1ccccc1.[Cl-].[H+] [D-α-(1-methylaminoethyl)benzyl alcohol] + O
Settings	binary diffusion coefficient, 298.15 K [m2/s]	binary diffusion coefficient, 310.15 K [m2/s]	molar conductivity, 283.15 K [S·m2/mol]	molar conductivity, 293.15 K [S·m2/mol]	molar conductivity, 298.15 K [S·m2/mol]	molar conductivity, 303.15 K [S·m2/mol]	molar conductivity, 310.15 K [S·m2/mol]	molar conductivity, 323.15 K [S·m2/mol]
c1 = 0.001	1.13e-09	1.57e-09	–	–	–	–	–	–
c1 = 0.001841	–	–	0.006545	0.00844	0.009366	0.01041	0.01201	0.01524
c1 = 0.00244	–	–	0.006422	0.008268	0.009179	0.0102	0.01177	0.01489
c1 = 0.0025	1.12e-09	1.53e-09	–	–	–	–	–	–
c1 = 0.003031	–	–	0.006316	0.008109	0.009034	0.01001	0.01159	0.01469
c1 = 0.003615	–	–	0.006204	0.007973	0.008901	0.009837	0.01141	0.01444
c1 = 0.004193	–	–	0.006101	0.007849	0.008778	0.009703	0.01122	0.01422
c1 = 0.004763	–	–	0.006018	0.007749	0.008675	0.009566	0.01107	0.01401
c1 = 0.005	1.1e-09	1.48e-09	–	–	–	–	–	–
c1 = 0.005327	–	–	0.005942	0.007661	0.008577	0.009439	0.01094	0.01384
c1 = 0.005884	–	–	0.005866	0.00757	0.008481	0.00932	0.01079	0.01368
c1 = 0.006434	–	–	0.005795	0.007486	0.00839	0.009208	0.0107	0.01352
c1 = 0.006978	–	–	0.005725	0.007395	0.008298	0.009099	0.01057	0.01337
c1 = 0.007516	–	–	0.005655	0.00731	0.008205	0.008991	0.01046	0.01322
c1 = 0.008	1.05e-09	1.42e-09	–	–	–	–	–	–
c1 = 0.008048	–	–	0.005593	0.007232	0.00812	0.008893	0.01036	0.01308
c1 = 0.008573	–	–	0.005534	0.007159	0.00804	0.0088	0.01027	0.01295
c1 = 0.009093	–	–	0.005477	0.007089	0.007965	0.008713	0.01018	0.01283
c1 = 0.009607	–	–	0.005427	0.007027	0.007896	0.008633	0.01009	0.01271
c1 = 0.01	1.01e-09	1.38e-09	–	–	–	–	–	–
c1 = 0.01012	–	–	0.005377	0.006966	0.007829	0.008556	0.01001	0.0126
c1 = 0.01062	–	–	0.005329	0.006904	0.007761	0.008478	0.009923	0.01249
c1 = 0.01111	–	–	0.005284	0.006844	0.007695	0.008404	0.009841	0.01238
c1 = 0.01161	–	–	0.005242	0.006785	0.00763	0.008329	0.00976	0.01228
c1 = 0.01209	–	–	0.005196	0.006729	0.007567	0.008257	0.009679	0.01217
c1 = 0.01257	–	–	0.005156	0.006675	0.007501	0.00819	0.009603	0.01208
c1 = 0.01305	–	–	0.005118	0.006626	0.00745	0.008126	0.009532	0.01198
c1 = 0.01352	–	–	0.005078	0.006576	0.007395	0.008064	0.009461	0.01189
c1 = 0.01398	–	–	0.005038	0.006528	0.007343	0.008005	0.009394	0.01181
c1 = 0.01444	–	–	0.005003	0.006483	0.007291	0.007946	0.009328	0.01172
c1 = 0.0149	–	–	0.004966	0.006437	0.007239	0.007888	0.009261	0.01164
c1 = 0.01535	–	–	0.004929	0.00639	0.007188	0.007831	0.009196	0.01155
c1 = 0.01579	–	–	0.004894	0.006343	0.007138	0.007776	0.009132	0.01147
c1 = 0.01623	–	–	0.004861	0.006302	0.00709	0.007722	0.009069	0.01139
c1 = 0.01667	–	–	0.004832	0.006262	0.007045	0.007671	0.00901	0.01132
